This is an account of results in ChEMBL document CHEMBL1127002, “Substituted pyrrolidin-2-one biphenyltetrazoles as angiotensin II antagonists” (Bioorg Med Chem Lett, 1993).

The species named for one assay is Oryctolagus cuniculus. Kind of assay: Tested for inhibitory activity against angiotensin II induced contraction in rabbit aortic rings. Format: functional. Particulars: Aorta, read-out: pA2 (converted).
The subject of the next assay is Rattus norvegicus. Briefly: Tested for antihypertensive activity in spontaneously hypertensive rats (SHR) after oral administration; A - Compound shows antihypertensive activity. Format: functional, organism-based.
Assay [1] deals with T1, Type-1 angiotensin II receptor (Bos taurus, UniProt P25104).
T1 sequence (P25104 whole entry): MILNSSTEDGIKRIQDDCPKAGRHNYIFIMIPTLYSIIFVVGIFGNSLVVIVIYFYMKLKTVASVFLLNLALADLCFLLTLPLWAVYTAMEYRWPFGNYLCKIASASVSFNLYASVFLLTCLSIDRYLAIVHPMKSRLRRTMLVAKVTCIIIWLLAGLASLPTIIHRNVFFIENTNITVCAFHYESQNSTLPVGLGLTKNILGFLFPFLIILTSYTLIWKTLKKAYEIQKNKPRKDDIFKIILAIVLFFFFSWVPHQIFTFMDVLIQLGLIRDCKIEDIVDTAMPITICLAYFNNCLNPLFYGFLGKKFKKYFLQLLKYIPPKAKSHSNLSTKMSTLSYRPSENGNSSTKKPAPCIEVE
Briefly: Concentration that gives 50% inhibition for binding of 125-I-[Sar1, IIe8] angiotensin to Angiotensin II receptor, type 1 in bovine adrenal cortex membrane. Type of assay: cell membranes.

Molecules are shown by their SMILES. Activity calls are given as the source filed them. The rule behind the calls is not given here.

In the case of `CCOC(=O)/C=C1\C2CC=CCC2C(=O)N1Cc1ccc(-c2ccccc2-c2nn[nH]n2)cc1` (centres undefined), the Kb in the assay listed under Oryctolagus cuniculus is 0.0316 µM.

`CCOC(=O)/C=C1\C2C3CCC(C3)C2C(=O)N1Cc1ccc(-c2ccccc2-c2nn[nH]n2)cc1` (centres undefined): the Kb in the assay listed under Oryctolagus cuniculus was 0.001 µM.

In the case of `CCOC(=O)/C=C1\N(Cc2ccc(-c3ccccc3-c3nn[nH]n3)cc2)C(=O)CC12CCCCCC2`, the Kb in the assay filed under Oryctolagus cuniculus is 0.00398 µM. In addition, the outcome in the assay on Rattus norvegicus was Active.

As to `CCOC(=O)/C=C1\C2C(C(=O)N1Cc1ccc(-c3ccccc3-c3nn[nH]n3)cc1)C1CCC2C1(C)C` (centres undefined), the Kb in the assay filed under Oryctolagus cuniculus was 0.251 µM.

For `CCOC(=O)/C=C1\C2C3C=CC(CCC3)C2C(=O)N1Cc1ccc(-c2ccccc2-c2nn[nH]n2)cc1` (centres undefined), the Kb in the assay listed under Oryctolagus cuniculus is 0.0398 µM.

Consider `CCOC(=O)/C=C1\C2CCCCC2C(=O)N1Cc1ccc(-c2ccccc2-c2nn[nH]n2)cc1` (centres undefined), for which, in the assay filed under Oryctolagus cuniculus, the Kb was 0.00398 µM.

For `CCOC(=O)/C=C1\C2C3C=CC(CC3)C2C(=O)N1Cc1ccc(-c2ccccc2-c2nn[nH]n2)cc1` (centres undefined), the Kb in the assay filed under Oryctolagus cuniculus was 0.00631 µM.

As a reminder, the IC50 is the concentration that gives 50% inhibition. A high value points to lower potency. `CCOC(=O)/C=C1\N(Cc2ccc(-c3ccccc3-c3nnn[nH]3)cc2)C(=O)CC12CCCCCC2`: the IC50 in assay [1] worked out at 0.06 µM.

As for `CCCCc1nc(Cl)c(CO)n1Cc1ccc(-c2ccccc2-c2nnn[nH]2)cc1` [LOSARTAN], the Kb in the assay listed under Oryctolagus cuniculus was 0.00158 µM. Besides, the IC50 in assay [1] was 0.425 µM.

Consider `CCOC(=O)/C=C1\N(Cc2ccc(-c3ccccc3-c3nn[nH]n3)cc2)C(=O)CC1(CC)CC`, for which, in the assay filed under Oryctolagus cuniculus, the Kb is 0.0126 µM. This compound also gave an IC50 in assay [1] of 0.1 µM.

For `CCOC(=O)/C=C1\N(Cc2ccc(-c3ccccc3-c3nn[nH]n3)cc2)C(=O)CC12CCCC2`, the Kb in the assay filed under Oryctolagus cuniculus was 0.00316 µM. In addition, the IC50 in assay [1] is 0.25 µM.

`CCOC(=O)/C=C1\C2C3C=CC(C3)C2C(=O)N1Cc1ccc(-c2ccccc2-c2nn[nH]n2)cc1` (centres undefined): the Kb in the assay listed under Oryctolagus cuniculus is 0.00398 µM.

On to `CCOC(=O)/C=C1\C2C(C(=O)N1Cc1ccc(-c3ccccc3-c3nn[nH]n3)cc1)C1CCC2C1(c1ccccc1)c1ccccc1` (centres undefined), for which, in the assay filed under Oryctolagus cuniculus, the Kb is greater than 1 µM.

Turning to `CCOC(=O)/C=C1\C2C(C(=O)N1Cc1ccc(-c3ccccc3-c3nn[nH]n3)cc1)C1C=CC2(OC)CC1` (centres undefined), the Kb in the assay filed under Oryctolagus cuniculus was 0.00501 µM.

In the case of `CCOC(=O)/C=C1\C2C3CCC(O3)C2C(=O)N1Cc1ccc(-c2ccccc2-c2nn[nH]n2)cc1` (centres undefined), the Kb in the assay listed under Oryctolagus cuniculus is 0.00398 µM.

Turning to `CCOC(=O)/C=C1/C(C)CC(=O)N1Cc1ccc(-c2ccccc2-c2nn[nH]n2)cc1` (centres undefined), the Kb in the assay listed under Oryctolagus cuniculus was 0.316 µM. Moreover, the IC50 in assay [1] came to 3.1 µM.

Take `CCOC(=O)/C=C1\C2C3CCCC(CC3)C2C(=O)N1Cc1ccc(-c2ccccc2-c2nn[nH]n2)cc1` (centres undefined): the Kb in the assay listed under Oryctolagus cuniculus is 0.02 µM. Also, the Activity result with Rattus norvegicus is “A”.

With `CCOC(=O)/C=C1\C2C3CCC(CC3)C2C(=O)N1Cc1ccc(-c2ccccc2-c2nn[nH]n2)cc1` (centres undefined), the Kb in the assay listed under Oryctolagus cuniculus is 0.01 µM. In the assay on Rattus norvegicus, the Activity result is on record as “A”.

With `CCOC(=O)/C=C1\N(Cc2ccc(-c3ccccc3-c3nn[nH]n3)cc2)C(=O)CC1(C)CC` (centres undefined), in the assay filed under Oryctolagus cuniculus, the Kb is 0.0251 µM. The same compound gave a half-maximal inhibitory concentration (IC50) in assay [1] of 0.06 µM.

Consider `CCOC(=O)/C=C1\N(Cc2ccc(-c3ccccc3-c3nnn[nH]3)cc2)C(=O)CC12CCCCC2`, for which, in the assay filed under Oryctolagus cuniculus, the Kb was 0.0126 µM. Also, in assay [1], the IC50 was found to be 0.14 µM.
